# Assays:
# Format in all cases: binding
# VhCBP F437A = test: ITC titration of VhCBP mutant F437A with (GlcNAc)2
# From the text: (§1) These proteins were used for ITC binding experiments with (GlcNAc)2 as the ligand. […] Degrees of conservation among five members of cluster/subcluster C-IV SBPs (VhCBP, VcCBP, TmCeBP, TmMnBP1, and TmMnBP2) are also represented by coloring dark red (high degree of conservation) to pale red (moderate degree of conservation) to white (low degree of conservation).
# (§2) Figure 5 ITC profiles obtained from (GlcNAc)2titration using VhCBP WT and mutants. Thermograms (upper) and binding isotherms with theoretical fits (lower) of the individual titrations are presented. Titration experiments were conducted in 20 mM Tris HCl, pH 8.0, at 25 °C. ITC, isothermal titration calorimetry. VhCBP, CBP from Vibrio campbellii type strain ATCC BAA-1116.
# (§3) ITC experiments were conducted by titrating 200 μM (GlcNAc)n (n = 2, 3, or 4) solutions from the injection syringe into 20 μM WT VhCBP in the sample cell. The titrations were performed in 20 mM Tris-HCl buffer, pH 8.0, by a PEAQ-ITC (Malvern Instruments) using the operational software installed in the equipment. Briefly, the temperature in the sample cell was maintained at 25 °C, and the difference in temperature (ΔT) between the reference cell and the sample cell was compensated by heaters fitted to the cells. The compensation energy utilized per second was plotted against experimental time. Peak integrations of the individual troughs were replotted against the molar ratio of the ligand to protein. The binding isotherm thus obtained was used for data-fitting analysis using the ‘One-Set of Sites’ model defined in MicroCal PEAQ-ITC Analysis Software to obtain Kd, ΔG°, ΔH°, and ΔS° terms. […] Titrations of (GlcNAc)2 to the individual VhCBP mutants were performed as described for the WT protein.
# (§4) Table S2: ITC experimental conditions for titration of VhCBP and its mutants with (GlcNAc) 2-4 .
# (§5) Table S3: Conditions for co-crystallization of VhCBP mutants with (GlcNAc) 2.
# VhCBP D365A = test: ITC titration of VhCBP mutant D365A with (GlcNAc)2
# From the text: as §1, §2, §3, §4, §5
# VhCBP WT = test: ITC titration of WT VhCBP with (GlcNAc)2–4; settings: for ΔG° / ΔH° / −TΔS° / Kd: 20 mM Tris-HCl pH 8.0, 25 °C; for ΔG° / ΔH° / −TΔS°: mean ± SD; for Kd: n fixed at 1, mean ± SD of three experiments; for fold lower affinity than (GlcNAc)2: from Kd values
# Protocol: We previously reported ITC data for (GlcNAc)2–4 binding to VhCBP in 20 mM potassium phosphate, pH 8.0, at 4 °C ([13]). Here, we re-evaluated the ITC data by conducting binding experiments in Tris HCl, pH 8.0, at 25 °C using (GlcNAc)n (n = 2–4) as the ligands. The binding interactions for individual ligands were determined assuming a 1:1 stoichiometry.
# as §2, §3
# Table S2: ITC experimental conditions for titration of VhCBP and its mutants with (GlcNAc) 2-4 . […]
# VhCBP E10A = test: ITC titration of VhCBP mutant E10A with (GlcNAc)2
# From the text: as §1, §2, §3, §4, §5
# VhCBP F411A = test: ITC titration of VhCBP mutant F411A with (GlcNAc)2
# From the text: as §1, §2, §3, §4, §5
# VhCBP S221A = test: ITC titration of VhCBP mutant S221A with (GlcNAc)2
# From the text: as §1, §2, §3, §4, §5
# VhCBP N409A = test: ITC titration of VhCBP mutant N409A with (GlcNAc)2
# From the text: as §1, §2, §3, §4, §5
# VhCBP W363A/W513A = test: ITC titration of VhCBP double mutant W363A/W513A with (GlcNAc)2; settings: 20 mM Tris HCl pH 8.0, 25 °C
# From the text: To evaluate the contributions of the amino acid residues in (GlcNAc)2 binding, we carried out site-directed mutagenesis to substitute the designated residues and successfully produced nine single mutants, E10A, N204A, S221A, W363A, D365A, N409A, F411A, F437A, and W513A, and one double mutant, W363A/W513A. All proteins were purified to homogeneity by Ni-NTA affinity chromatography, followed by gel filtration, and their purities were checked by SDS-PAGE analysis (Fig. S2). These proteins were used for ITC binding experiments with (GlcNAc)2 as the ligand. […] The effects on ΔG° in the other mutants (E10A, N204A, S221A, N409A, and F411A) were moderate, although one mutation had been introduced into an amino acid with a high degree of conservation (Asn^204). Changes in ΔG° (ΔΔG°) resulting from all the mutations were mapped on the structure of VhCBP in complex with (GlcNAc)2 as shown in Figure 6B. Degrees of conservation among five members of cluster/subcluster C-IV SBPs (VhCBP, VcCBP, TmCeBP, TmMnBP1, and TmMnBP2) are also represented by coloring dark red (high degree of conservation) to pale red (moderate degree of conservation) to white (low degree of conservation).
# Figure 5 ITC profiles obtained from (GlcNAc)2titration using VhCBP WT and mutants. Thermograms (upper) and binding isotherms with theoretical fits (lower) of the individual titrations are presented. […]
# VhCBP W363A = test: ITC titration of VhCBP mutant W363A with (GlcNAc)2
# From the text: as §1, §2, §3, §4, §5
# VhCBP W513A = test: ITC titration of VhCBP mutant W513A with (GlcNAc)2
# From the text: as §1, §2, §3, §4, §5
# VhCBP N204A = test: ITC titration of VhCBP mutant N204A with (GlcNAc)2
# From the text: as §1, §2, §3, §4, §5
compound,measurement,setting,value
CC(=O)N[C@H]1[C@H](O[C@H]2[C@H](O)[C@@H](NC(C)=O)C(O)O[C@@H]2CO)O[C@H](CO)[C@@H](O)[C@@H]1O (stereo partly drawn) [(GlcNAc)2],ΔΔG°,VhCBP F437A; F437A versus WT,+4.1 ± 0.3 kcal.mol^−1
same,Kd,"VhCBP F437A; ITC, F437A, 20 mM Tris-HCl pH 8.0, 25 °C, mean ± SD",29.7 ± 0.5 µM
same,ΔG°,"VhCBP F437A; ITC, F437A, pH 8.0, 25 °C",-6.2 ± 0.0 kcal/mol
same,ΔH°,"VhCBP F437A; ITC, F437A, pH 8.0, 25 °C",-11.0 ± 0.4 kcal/mol
same,ΔΔG°,VhCBP D365A; D365A versus WT,+8.6 ± 0.3 kcal.mol^−1
same,Kd,"VhCBP D365A; ITC, D365A, 20 mM Tris-HCl pH 8.0, 25 °C, mean ± SD",65000 µM
same,ΔG°,"VhCBP D365A; ITC, D365A, pH 8.0, 25 °C",-1.6 ± 0.0 kcal/mol
same,ΔH°,"VhCBP D365A; ITC, D365A, pH 8.0, 25 °C",-11.3 ± 0.4 kcal/mol
same,−TΔS°,"VhCBP D365A; ITC, D365A, pH 8.0, 25 °C",9.7 ± 0.4 kcal/mol
same,ΔG°,VhCBP WT,-10.3 ± 0.3 kcal/mol
same,ΔH°,VhCBP WT,-3.9 ± 0.1 kcal/mol
same,−TΔS°,VhCBP WT,-6.4 ± 0.2 kcal/mol
same,Kd,VhCBP WT,0.03 ± 0.01 µM
same,ΔΔG°,VhCBP E10A; E10A versus WT,+1.9 ± 0.2 kcal.mol^−1
same,Kd,"VhCBP E10A; ITC, E10A, 20 mM Tris-HCl pH 8.0, 25 °C, mean ± SD",0.71 ± 0.07 µM
same,ΔG°,"VhCBP E10A; ITC, E10A, pH 8.0, 25 °C",-8.4 ± 0.1 kcal/mol
same,ΔH°,"VhCBP E10A; ITC, E10A, pH 8.0, 25 °C",-8.8 ± 0.1 kcal/mol
same,−TΔS°,"VhCBP E10A; ITC, E10A, pH 8.0, 25 °C",0.4 ± 0.2 kcal/mol
same,ΔΔG°,VhCBP F411A; F411A versus WT,+1.6 ± 0.3 kcal.mol^−1
same,Kd,"VhCBP F411A; ITC, F411A, 20 mM Tris-HCl pH 8.0, 25 °C, mean ± SD",0.4 ± 0.07 µM
same,ΔG°,"VhCBP F411A; ITC, F411A, pH 8.0, 25 °C",-8.7 ± 0.1 kcal/mol
same,ΔH°,"VhCBP F411A; ITC, F411A, pH 8.0, 25 °C",-3.3 ± 0.1 kcal/mol
same,−TΔS°,"VhCBP F411A; ITC, F411A, pH 8.0, 25 °C",-5.4 ± 0.1 kcal/mol
same,Kd,"VhCBP S221A; ITC, S221A, 20 mM Tris-HCl pH 8.0, 25 °C, mean ± SD",0.07 ± 0.06 µM
same,ΔG°,"VhCBP S221A; ITC, S221A, pH 8.0, 25 °C",-10.2 ± 1.0 kcal/mol
same,ΔH°,"VhCBP S221A; ITC, S221A, pH 8.0, 25 °C",-5.3 ± 0.7 kcal/mol
same,−TΔS°,"VhCBP S221A; ITC, S221A, pH 8.0, 25 °C",-4.9 ± 1.4 kcal/mol
same,ΔΔG°,VhCBP S221A; S221A versus WT,+0.1 ± 1.0 kcal.mol^−1
same,Kd,"VhCBP N409A; ITC, N409A, 20 mM Tris-HCl pH 8.0, 25 °C, mean ± SD",0.45 ± 0.1 µM
same,ΔG°,"VhCBP N409A; ITC, N409A, pH 8.0, 25 °C",-8.7 ± 0.1 kcal/mol
same,ΔH°,"VhCBP N409A; ITC, N409A, pH 8.0, 25 °C",-9.6 ± 0.6 kcal/mol
same,−TΔS°,"VhCBP N409A; ITC, N409A, pH 8.0, 25 °C",1.0 ± 0.7 kcal/mol
same,ΔΔG°,VhCBP N409A; N409A versus WT,+1.6 ± 0.2 kcal.mol^−1
same,binding detected by ITC (ND represents no detectable binding),VhCBP W363A/W513A,did not exhibit any clear heat release
same,Kd,"VhCBP W363A; ITC, W363A, 20 mM Tris-HCl pH 8.0, 25 °C, mean ± SD",80.2 ± 19.9 µM
same,ΔG°,"VhCBP W363A; ITC, W363A, pH 8.0, 25 °C",-5.6 ± 0.1 kcal/mol
same,ΔH°,"VhCBP W363A; ITC, W363A, pH 8.0, 25 °C",-1.9 ± 1.8 kcal/mol
same,−TΔS°,"VhCBP W363A; ITC, W363A, pH 8.0, 25 °C",-3.7 ± 2.0 kcal/mol
same,ΔΔG°,VhCBP W363A; W363A versus WT,+4.7 ± 0.4 kcal.mol^−1
same,Kd,"VhCBP W513A; ITC, W513A ('half-open'/semiopen state), 20 mM Tris-HCl pH 8.0, 25 °C, mean ± SD",36.8 ± 7.4 µM
same,ΔG°,"VhCBP W513A; ITC, W513A, pH 8.0, 25 °C",-6.1 ± 0.1 kcal/mol
same,ΔH°,"VhCBP W513A; ITC, W513A, pH 8.0, 25 °C",-5.8 ± 0.0 kcal/mol
same,−TΔS°,"VhCBP W513A; ITC, W513A, pH 8.0, 25 °C",-0.3 ± 0.1 kcal/mol
same,lower affinity of semiopen state than the closed state,"VhCBP W513A; W513A (semiopen) versus WT (closed), from Kd",1200
same,ΔΔG°,VhCBP W513A; W513A versus WT,+4.2 ± 0.3 kcal.mol^−1
same,Kd,"VhCBP N204A; ITC, N204A, 20 mM Tris-HCl pH 8.0, 25 °C, mean ± SD",0.83 ± 0.17 µM
same,ΔG°,"VhCBP N204A; ITC, N204A, pH 8.0, 25 °C",-8.3 ± 0.1 kcal/mol
same,ΔH°,"VhCBP N204A; ITC, N204A, pH 8.0, 25 °C",-0.75 ± 0.05 kcal/mol
same,−TΔS°,"VhCBP N204A; ITC, N204A, pH 8.0, 25 °C",-7.6 ± 0.2 kcal/mol
same,ΔΔG°,VhCBP N204A; N204A versus WT,+2.1 ± 0.3 kcal.mol^−1
CC(=O)N[C@H]1[C@H](O[C@H]2[C@H](O)[C@@H](NC(C)=O)C(O)O[C@@H]2CO)O[C@H](CO)[C@@H](O[C@@H]2O[C@H](CO)[C@@H](O[C@@H]3O[C@H](CO)[C@@H](O)[C@H](O)[C@H]3NC(C)=O)[C@H](O)[C@H]2NC(C)=O)[C@@H]1O (stereo partly drawn) [(GlcNAc)4],ΔG°,VhCBP WT,-8.8 ± 0.3 kcal/mol
same,ΔH°,VhCBP WT,-4.8 ± 0.6 kcal/mol
same,−TΔS°,VhCBP WT,-4.0 ± 1.0 kcal/mol
same,Kd,VhCBP WT,0.4 ± 0.24 µM
same,fold lower affinity than (GlcNAc)2,VhCBP WT,12 fold
CC(=O)N[C@H]1[C@H](O[C@H]2[C@H](O)[C@@H](NC(C)=O)C(O)O[C@@H]2CO)O[C@H](CO)[C@@H](O[C@@H]2O[C@H](CO)[C@@H](O)[C@H](O)[C@H]2NC(C)=O)[C@@H]1O (stereo partly drawn) [(GlcNAc)3],ΔG°,VhCBP WT,-9.7 ± 0.3 kcal/mol
same,ΔH°,VhCBP WT,-4.7 ± 0.1 kcal/mol
same,−TΔS°,VhCBP WT,-5.0 ± 0.3 kcal/mol
same,Kd,VhCBP WT,0.09 ± 0.05 µM
same,fold lower affinity than (GlcNAc)2,VhCBP WT,3 fold
